Results on three molecules are retold here after patent US20210300900A1, “OGA INHIBITOR COMPOUNDS” (Janssen Pharmaceutica NV, priority 2018, published 2021).

The target in one data set is T1, OGA (Homo sapiens, UniProt O60502).
T1 construct: endogenous in cells; host or cells: HEK293 cells inducible for P301L mutant human Tau (isoform 2N4R)
T1 sequence (O60502 1-916): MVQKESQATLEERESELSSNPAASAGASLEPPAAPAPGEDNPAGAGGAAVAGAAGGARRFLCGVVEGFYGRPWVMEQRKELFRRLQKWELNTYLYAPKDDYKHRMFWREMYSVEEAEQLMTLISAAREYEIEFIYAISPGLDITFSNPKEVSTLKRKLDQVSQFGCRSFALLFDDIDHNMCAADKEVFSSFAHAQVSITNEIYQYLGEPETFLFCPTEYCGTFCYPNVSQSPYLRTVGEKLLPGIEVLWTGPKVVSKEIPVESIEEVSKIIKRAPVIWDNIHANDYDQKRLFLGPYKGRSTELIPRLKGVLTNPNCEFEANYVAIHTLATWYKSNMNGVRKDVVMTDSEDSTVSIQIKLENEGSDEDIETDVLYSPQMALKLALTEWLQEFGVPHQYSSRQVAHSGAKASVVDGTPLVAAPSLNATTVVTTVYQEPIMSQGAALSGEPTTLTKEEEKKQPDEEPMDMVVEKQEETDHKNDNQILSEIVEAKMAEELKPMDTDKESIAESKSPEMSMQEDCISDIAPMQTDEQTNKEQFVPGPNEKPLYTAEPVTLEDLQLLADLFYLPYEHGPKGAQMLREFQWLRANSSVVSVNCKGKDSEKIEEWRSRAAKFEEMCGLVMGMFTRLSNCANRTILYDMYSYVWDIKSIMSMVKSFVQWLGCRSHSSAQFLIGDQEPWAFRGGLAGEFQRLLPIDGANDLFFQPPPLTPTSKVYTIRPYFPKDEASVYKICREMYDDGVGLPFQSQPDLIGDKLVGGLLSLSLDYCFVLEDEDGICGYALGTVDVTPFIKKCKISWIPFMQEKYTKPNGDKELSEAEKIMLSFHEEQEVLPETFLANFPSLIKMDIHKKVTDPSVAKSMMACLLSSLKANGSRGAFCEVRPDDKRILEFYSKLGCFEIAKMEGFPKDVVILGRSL
The experiment in a line: OGA cellular assay (ICC detection of O-GlcNAcylated proteins in HEK293 cells inducible for P301L mutant human Tau). It is filed as cell-based. The settings on record: 6 hours incubation; for Emax: HEK293, HEK293 cells inducible for P301L mutant human Tau, maximum = Thiamet G 200 uM; for EC50: HEK293 cells inducible for P301L mutant human Tau, read-out: Cellular hOGA, pEC50 (converted). In a few lines: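 HEK293 cells inducible for P301L Tau (2N4R), seeded in low-glucose medium, treated 6 hours with compound (0.2% DMSO). O-GlcNAcylated proteins detected by CTD110.6 immunocytochemistry, imaged at 488 nm, nuclei counted with Hoechst; values from non-linear regression against 200 uM Thiamet G as maximum.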

Data set [1] has as its target T2, recombinant human Meningioma Expressed Antigen 5 (MGEA5), also referred to as O-GcNAcase (OGA) (Homo sapiens, UniProt O60502).
T2 construct: Full length OGA enzyme was purchased at OnGene (cat #TP322411); purchased OnGene (so in the source)
T2 sequence (O60502 1-916): T1 sequence (O60502 1-916)
The experiment in a line: OGA biochemical assay (inhibition of FM-GlcNAc hydrolysis, fluorescence). The settings on record: FM-GlcNAc substrate; for Emax: read-out: Enzymatic Emax (%); for IC50: read-out: Enzymatic hOGA, pIC50 (converted). In outline:
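Full-length recombinant human OGA (2 nM) pre-incubated 60 min with compound, then FM-GlcNAc (100 uM final) added in 200 mM citrate/phosphate pH 7.2 with 0.005% Tween-20; 6 h at room temperature, stopped with pH 11.0 carbonate. Fluorescein read at ex 485/em 538 nm; IC50 and Hill coefficient from curve fit against no-inhibitor and saturating-standard controls.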

By Emax is commonly meant the size of the effect at its maximum, as opposed to the concentration needed. One may read the melting point as the temperature of the solid-liquid transition. In turn, `CC(=O)Nc1cnc(C(C)N2CCC[C@H](Cc3cc(C)nc(C)c3)C2)cn1` (stereo partly shown) [Product 64] registered a melting point of 211.6 °C. Besides, on OGA, the maximal effect (Emax) was determined as 26% and the EC50 was over 1000 nM. Further, in data set [1], the Emax came to 95% and the IC50 was 692 nM.

In the case of `CC(=O)Nc1cc(C(C)N2CCCC(c3cc(C)nc(C)c3)C2)n[nH]1` (stereo not shown) [Product 72], the melting point was 184.68 °C. At OGA, the Emax worked out at 31% and the EC50 is over 1000 nM. Also, in data set [1], the maximal response (Emax) amounted to 97% and the IC50 was 457 nM.

The molecule `CC(=O)Nc1ncc(CN2CCC[C@H](Cc3cc(C)nc(C)c3)C2)nc1C.Cl` [Product 158] gave a melting point of 158.1 °C. Besides, in data set [1], the Emax is 13% and the IC50 is over 10000 nM.
